Experimental data from PMC10257182, “Discovery of senolytics using machine learning” (Nature Communications, 2023).
“And” between values parts separate entries of the source, which are not always exact repeats. Equal entries are not always repeated. Where two headings read alike, the source gives them in different places.

Tests used:
Format in all cases: cell-based, human
[1] = system: NOXA mRNA in senescent IMR90 ER:RAS cells; experiment: NOXA mRNA expression by RT-qPCR, OIS
Method: (§1) Total RNA was isolated using RNAeasy kit (Quiagen). cDNA was generated with reverse transcriptase iScript (Bio-Rad). RT-qPCR was performed using SYBR Select Master Mix (Applied Biosystems) in OneStepPlus detection system (Applied Biosystems). Oligos for amplification were: NOXA Fw-[…] and Rv-[…]; b-ACTIN Fw-[…] and Rv-[…]; IL1a Fw-[…] and Rv- […]; IL1b Fw-[…] and Rv- […]; IL8 Fw-[…] and Rv-[…]; p16 Fw-CGGTCGGAGGCCGATCCAG and Rv- […]; p21Fw-[…] and Rv- […].

[2] = system: non-senescent control IMR90 ER:RAS cells; experiment: Nuclei count (Hoechst, high content imaging) senolytic assay, OIS model, non-senescent control cells; conditions: Homo sapiens
In short: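 Senolytic read-out as total nuclei per well by automated Hoechst imaging after 72 h compound exposure (10 μM to 10 nM, 10-point […], triplicate), relative to untreated controls. Paired cultures: IMR90 ER:RAS kept non-senescent or made senescent with 100 nM final 4-OHT; ouabain served as positive control.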

[3] = system: senescent IMR90 ER:RAS cells; experiment: Cell survival assay using crystal violet staining, OIS, senescent cells
Method: Equal numbers of control and senescent cells were plated at high density on multiwell plates just before senolytic treatment addition. After treatment, cells were fixed on 0.5% glutaraldehyde (Sigma) and then dried at RT overnight. Then, wells were stained with crystal violet solution for 3 h, washed and dried. Once they were completely dry, the plates were scanned for records. Quantification was performed extracting the staining with 1% acetic acid and measuring the final solution by absorbance at 595 nm.

[4] = system: NOXA mRNA in IMR90 cells at passage 27; experiment: NOXA mRNA expression by RT-qPCR, replicative senescence
Method: as §1

In the case of `CO[C@H]1C[C@H](O[C@H]2CC[C@@]3(C)[C@H](CC[C@@H]4[C@@H]3CC[C@]3(C)[C@@H](C5=CC(=O)OC5)[C@@H](OC(C)=O)C[C@]43O)C2)O[C@@H](C)[C@@H]1O` [Oleandrin, oleandrin], the “NOXA mRNA expression, group mean (Test details, Mean 2)” value ([1]; ER:RAS cells, 10 nM, mean of n=4) is reported as 49.05, the “NOXA mRNA expression” value ([1]; ER:RAS cells, 10 nM, relative to ER:STOP DMSO = 1, individual replicate values) is reported as 43.71 and 48.67 and 52.89 and 50.91 and the “NOXA mRNA expression, in words” value ([1]; OIS IMR90 ER:RAS, 10 nM (Fig. 5c)) is reported as “significant increase”. The viability at 10 µM ([2]; IMR-90, 72 h, Control, log (dose) [M] -5, 72 h, mean n=3 (Fig 3C), read-out: Mean % Cell Survival) was 15%, the viability at 4.677 µM ([2]; IMR-90, 72 h, Control, log (dose) [M] -5.33, 72 h, mean n=3 (Fig 3C), read-out: Mean % Cell Survival) was 20% and the viability at 2.188 µM ([2]; IMR-90, 72 h, Control, log (dose) [M] -5.66, 72 h, mean n=3 (Fig 3C), read-out: Mean % Cell Survival) was 20.5%. It also gave a viability at 1 µM ([2]; IMR-90, 72 h, Control, log (dose) [M] -6, 72 h, mean n=3 (Fig 3C), read-out: Mean % Cell Survival) of 25.6%, a viability at 0.4677 µM ([2]; IMR-90, 72 h, Control, log (dose) [M] -6.33, 72 h, mean n=3 (Fig 3C), read-out: Mean % Cell Survival) of 24.8% and a viability at 0.2188 µM ([2]; IMR-90, 72 h, Control, log (dose) [M] -6.66, 72 h, mean n=3 (Fig 3C), read-out: Mean % Cell Survival) of 24.3%. For the same compound, the viability at 0.1 µM ([2]; IMR-90, 72 h, Control, log (dose) [M] -7, 72 h, mean n=3 (Fig 3C), read-out: Mean % Cell Survival) was 34.7%, the viability at 0.04677 µM ([2]; IMR-90, 72 h, Control, log (dose) [M] -7.33, 72 h, mean n=3 (Fig 3C), read-out: Mean % Cell Survival) was 53.1% and the viability at 0.02188 µM ([2]; IMR-90, 72 h, Control, log (dose) [M] -7.66, 72 h, mean n=3 (Fig 3C), read-out: Mean % Cell Survival) was 80.8%. The viability at 0.01 µM ([2]; IMR-90, 72 h, Control, log (dose) [M] -8, 72 h, mean n=3 (Fig 3C), read-out: Mean % Cell Survival) was 92.8%, the viability at 4.677 µM ([2]; IMR-90, control, log (dose) [M] -5.33, individual replicates (Fig 3D), read-out: % Cell Survival) was 20.6% and the viability at 2.188 µM ([2]; IMR-90, control, log (dose) [M] -5.66, individual replicates (Fig 3D), read-out: % Cell Survival) was 18.9%. It also gave a viability at 1 µM ([2]; IMR-90, control, log (dose) [M] -6, individual replicates (Fig 3D), read-out: % Cell Survival) of 22.9%, a viability at 0.4677 µM ([2]; IMR-90, control, log (dose) [M] -6.33, individual replicates (Fig 3D), read-out: % Cell Survival) of 19.9% and a viability at 0.2188 µM ([2]; IMR-90, control, log (dose) [M] -6.66, individual replicates (Fig 3D), read-out: % Cell Survival) of 22.4%. For the same compound, the viability at 0.1 µM ([2]; IMR-90, control, log (dose) [M] -7, individual replicates (Fig 3D), read-out: % Cell Survival) was 31.3%, the viability at 0.04677 µM ([2]; IMR-90, control, log (dose) [M] -7.33, individual replicates (Fig 3D), read-out: % Cell Survival) was 54.6% and the viability at 0.02188 µM ([2]; IMR-90, control, log (dose) [M] -7.66, individual replicates (Fig 3D), read-out: % Cell Survival) was 71%. For the same compound, the viability at 0.01 µM ([2]; IMR-90, control, log (dose) [M] -8, individual replicates (Fig 3D), read-out: % Cell Survival) was 82.4%, the IC50 ([2]; IMR-90, OIS model, non-senescent IMR90 ER:RAS, nuclei count, 72 h) was 85 nM and the “% Cell Survival” value ([3]; FIG 4B, ER:RAS cells, individual replicate values, ER:STOP DMSO = 100) was 37.9% and 39.1% and 12.2% and 30.1% and 44.2% and 34.9% and 40.3% and 12.5% and 41% and 10.4% and 36% and 34.1%. For the same compound, the “Mean (cell survival, Tukey test details)” value ([3]; FIG 4B, ER:RAS cells, mean of n=12 as fraction of STOP DMSO = 1) was 0.3106, the “cytotoxic activity / cellular content (crystal violet), in words” value ([3]; IMR90-ER:RAS cells undergoing OIS, 10 nM, 72 h) was “significant drop in cellular content” and the “NOXA mRNA expression, group mean (Test details, Mean 2)” value ([4]; Replicative Senescence (RS) cells, 10 nM, mean of n=3) was 56.63. For the same compound, the “NOXA mRNA expression” value ([4]; Replicative Senescence cells, 10 nM, relative to Control DMSO = 1, individual replicate values) was 62.46 and 54.37 and 53.07 and the “NOXA mRNA expression, in words” value ([4]; replicative senescence IMR90, 10 nM (Fig. 5d)) was “significant increase”.
